Data on four compounds can be found in US12252524B2, “GIP/GLP1 co-agonist compounds” (Eli Lilly and Company, priority 2018, dated 2025).

SMILES strings stand for the structures. Numbered stars: 1 amine (or outer) side, 2 acyl side, 3 side chain; on linkers, the order of the positions; unused ones are H or OH. Square brackets hold non-standard residues; d marks the D form. Side chains are listed from the residue outwards. Peptide text beside a SMILES is read from it. * marks the point of attachment. C20 diacid = O=C(O)CCCCCCCCCCCCCCCCCCC(=O)*; αMePhe(2-F) = C[C@](N)(Cc1ccccc1F)C(=O)O; γGlu = O=C(O)[C@H](CCC(=O)[*:2])N[*:1]; αMeF = C[C@](N)(Cc1ccccc1)C(=O)O; αMeL = CC(C)C[C@](C)(N)C(=O)O; AEEA = NCCOCCOCC(=O)O; Aib = CC(C)(N)C(=O)O

In one test the target is T1, human Gcg receptor (Homo sapiens, UniProt P47871).
T1 construct: expressed in transfected cells; crude membranes
The experiment in a line: [125I]-Glucagon binding (SPA), human Gcg receptor. The conditions noted are these: read-out: hGLcgR Ki, nM (SEM, n). Put shortly:
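Cell pellets were lysed in hypotonic Tris buffer, pH 7.5, homogenized, and spun at low then high speed to give crude membranes. Ki was derived from the fitted IC50.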

Test [1] has as its target T2, gastric inhibitory peptide receptor (GIPR) (Homo sapiens, UniProt P48546).
T2 sequence (P48546 22-466): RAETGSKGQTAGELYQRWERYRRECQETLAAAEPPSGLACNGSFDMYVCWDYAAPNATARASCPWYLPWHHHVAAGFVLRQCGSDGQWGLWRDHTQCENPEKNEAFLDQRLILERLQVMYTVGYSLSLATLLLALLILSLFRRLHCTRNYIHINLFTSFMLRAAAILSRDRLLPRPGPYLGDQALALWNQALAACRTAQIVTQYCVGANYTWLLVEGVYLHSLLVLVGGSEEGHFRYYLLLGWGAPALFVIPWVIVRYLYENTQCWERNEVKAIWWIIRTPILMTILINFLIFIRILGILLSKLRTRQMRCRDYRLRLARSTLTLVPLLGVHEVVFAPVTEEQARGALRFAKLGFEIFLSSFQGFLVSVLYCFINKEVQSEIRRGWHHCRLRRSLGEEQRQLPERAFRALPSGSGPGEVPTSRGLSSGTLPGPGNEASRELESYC
The experiment in a line: cAMP pharmacological functional assay in presence of casein, hGIPR. It is filed as cell-based. The note with it: HEK293 cells expressing hGIPR, 0.1% Casein, geometric mean; read-out: hGIPR cAMP Rel EC50 nM (SEM, n).

Another test deals with human GLP-1R (Homo sapiens, UniProt P43220). Briefly: [125I]-GLP-1 binding (SPA), human GLP-1 receptor. Details: expressed in transfected cells; crude membranes. The conditions noted are these: read-out: hGLP1R Ki, (nM) (SEM, n). Put shortly:
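Frozen cell pellets are lysed on ice in hypotonic Tris buffer, pH 7.5, homogenized, and centrifuged to a membrane pellet resuspended at about 1 to 3 mg/mL. Binding is then measured in HEPES-based buffer at pH 7.4, and curves are fitted to give IC50 and Ki.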

The target in test [2] is human GLP-1 receptor (GLP-1R) (Homo sapiens, UniProt P43220). Briefly: cAMP pharmacological functional assay in presence of casein, hGLP-1R. The conditions noted are these: HEK293 cells expressing hGLP-1R, 0.1% Casein, geometric mean; read-out: hGLP1R cAMP Rel EC50 nM (SEM, n). The format is cell-based.
For the next test, the target named is T3, human GIP receptor (Homo sapiens, UniProt P48546).
T3 construct: expressed in transfected cells; crude membranes
T3 sequence (P48546 22-466): T2 sequence (P48546 22-466)
The experiment in a line: [125I]-GIP binding (SPA), human GIP receptor. The note with it: read-out: hGIPR Ki, nM (SEM, n).

Sequence of human GLP-1R (P43220 24-463): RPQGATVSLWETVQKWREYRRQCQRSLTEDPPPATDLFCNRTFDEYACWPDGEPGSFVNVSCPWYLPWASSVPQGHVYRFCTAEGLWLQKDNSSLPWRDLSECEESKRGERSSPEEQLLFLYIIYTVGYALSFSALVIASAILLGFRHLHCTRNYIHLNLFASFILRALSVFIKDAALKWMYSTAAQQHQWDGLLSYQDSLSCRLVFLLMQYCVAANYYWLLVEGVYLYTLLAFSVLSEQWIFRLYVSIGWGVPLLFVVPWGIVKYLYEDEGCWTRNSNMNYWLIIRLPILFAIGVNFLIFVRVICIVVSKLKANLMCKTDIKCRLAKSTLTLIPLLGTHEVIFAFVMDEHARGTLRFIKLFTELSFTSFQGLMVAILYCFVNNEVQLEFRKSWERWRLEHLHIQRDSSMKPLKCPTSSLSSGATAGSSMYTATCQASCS
Sequence of human GLP-1 receptor (GLP-1R) (P43220 24-463): as above
T1 sequence (P47871 26-477): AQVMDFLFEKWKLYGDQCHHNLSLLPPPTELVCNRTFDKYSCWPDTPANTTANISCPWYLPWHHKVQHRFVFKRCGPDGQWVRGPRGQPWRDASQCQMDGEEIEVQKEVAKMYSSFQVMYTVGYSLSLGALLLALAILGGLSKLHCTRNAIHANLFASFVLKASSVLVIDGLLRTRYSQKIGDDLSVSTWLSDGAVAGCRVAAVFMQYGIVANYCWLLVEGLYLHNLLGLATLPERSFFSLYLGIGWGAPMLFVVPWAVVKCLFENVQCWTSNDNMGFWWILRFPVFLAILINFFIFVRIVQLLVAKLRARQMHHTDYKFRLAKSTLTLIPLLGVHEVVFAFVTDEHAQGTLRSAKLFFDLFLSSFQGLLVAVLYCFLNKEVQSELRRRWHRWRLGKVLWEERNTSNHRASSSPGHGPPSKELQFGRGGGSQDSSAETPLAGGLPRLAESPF

As usually defined, the Ki is a measure of affinity in units of concentration, obtained from inhibition or displacement. In general, EC50 refers to the concentration that produces a half-maximal response. As for `CC[C@H](C)[C@H](NC(=O)[C@H](CC(C)C)NC(=O)[C@H](Cc1ccc(O)cc1)NC(=O)[C@H](CCC(=O)O)NC(=O)[C@@H](NC(=O)[C@H](Cc1ccccc1)NC(=O)[C@H](C)NC(=O)C(C)(C)NC(=O)[C@H](CCC(N)=O)NC(=O)[C@H](C)NC(=O)[C@H](CCCCNC(=O)COCCOCCNC(=O)COCCOCCNC(=O)CC[C@H](NC(=O)CCCCCCCCCCCCCCCCCCC(=O)O)C(=O)O)NC(=O)[C@H](CCC(=O)O)NC(=O)[C@H](CC(=O)O)NC(=O)[C@H](CC(C)C)NC(=O)[C@](C)(CC(C)C)NC(=O)[C@@H](NC(=O)[C@H](CO)NC(=O)[C@H](Cc1ccc(O)cc1)NC(=O)[C@H](CC(=O)O)NC(=O)[C@H](CO)NC(=O)[C@@H](NC(=O)[C@](C)(Cc1ccccc1)NC(=O)[C@@H](NC(=O)CNC(=O)[C@H](CCC(=O)O)NC(=O)C(C)(C)NC(=O)[C@@H](N)Cc1ccc(O)cc1)[C@@H](C)O)[C@@H](C)O)[C@@H](C)CC)[C@@H](C)CC)C(=O)N[C@@H](CCC(=O)O)C(=O)NCC(=O)NCC(=O)N1CCC[C@H]1C(=O)N[C@@H](CO)C(=O)N[C@@H](CO)C(=O)NCC(=O)N[C@@H](C)C(=O)N1CCC[C@H]1C(=O)N1CCC[C@H]1C(=O)N1CCC[C@H]1C(=O)N[C@@H](CO)C(N)=O` [Example 115] (H-Y[Aib]EGT[αMeF]TSDYSI[αMeL]LDEK([AEEA-AEEA-γGlu-C20 diacid])AQ[Aib]AFIEYLIEGGPSSGAPPPS-NH2), the Ki on human Gcg receptor stood at 9.89 nM; on human GLP-1R, 3.43 nM; on human GIP receptor it was 0.0302 nM. Besides, the EC50 in test [1] turned out to be 0.102 nM; in test [2], 0.088 nM.
For the compound `CC[C@H](C)[C@H](NC(=O)[C@H](CC(C)C)NC(=O)[C@H](Cc1ccc(O)cc1)NC(=O)[C@H](CCC(=O)O)NC(=O)[C@@H](NC(=O)[C@H](Cc1ccccc1)NC(=O)[C@H](CCC(=O)O)NC(=O)C(C)(C)NC(=O)[C@H](CCC(N)=O)NC(=O)[C@H](C)NC(=O)[C@H](CCCCNC(=O)COCCOCCNC(=O)COCCOCCNC(=O)CC[C@H](NC(=O)CCCCCCCCCCCCCCCCCCC(=O)O)C(=O)O)NC(=O)[C@H](CCC(=O)O)NC(=O)[C@H](CC(=O)O)NC(=O)[C@H](CC(C)C)NC(=O)[C@](C)(CC(C)C)NC(=O)[C@@H](NC(=O)[C@H](CO)NC(=O)[C@H](Cc1ccc(O)cc1)NC(=O)[C@H](CC(=O)O)NC(=O)[C@H](CO)NC(=O)[C@@H](NC(=O)[C@](C)(Cc1ccccc1)NC(=O)[C@@H](NC(=O)CNC(=O)[C@H](CCC(=O)O)NC(=O)C(C)(C)NC(=O)[C@@H](N)Cc1ccc(O)cc1)[C@@H](C)O)[C@@H](C)O)[C@@H](C)CC)[C@@H](C)CC)C(=O)N[C@@H](CCC(=O)O)C(=O)NCC(=O)NCC(=O)N1CCC[C@H]1C(=O)N[C@@H](CO)C(=O)N[C@@H](CO)C(=O)NCC(=O)N[C@@H](C)C(=O)N1CCC[C@H]1C(=O)N1CCC[C@H]1C(=O)N1CCC[C@H]1C(=O)N[C@@H](CO)C(N)=O` [Example 116] (H-Y[Aib]EGT[αMeF]TSDYSI[αMeL]LDEK([AEEA-AEEA-γGlu-C20 diacid])AQ[Aib]EFIEYLIEGGPSSGAPPPS-NH2), the Ki on human Gcg receptor was determined as 137 nM; on human GLP-1R, 6.8 nM; at human GIP receptor, 0.0597 nM. Further, the figures for the EC50 in test [1] and in test [2] were 0.0867 nM and 0.0703 nM, respectively.
On the same counts, the results for `CC[C@H](C)[C@H](NC(=O)[C@H](CC(C)C)NC(=O)[C@H](Cc1ccc(O)cc1)NC(=O)[C@H](CCC(=O)O)NC(=O)[C@@H](NC(=O)[C@H](Cc1ccccc1)NC(=O)[C@H](C)NC(=O)C(C)(C)NC(=O)[C@H](CCC(N)=O)NC(=O)[C@H](C)NC(=O)[C@H](CCCCNC(=O)COCCOCCNC(=O)COCCOCCNC(=O)CC[C@H](NC(=O)CCCCCCCCCCCCCCCCCCC(=O)O)C(=O)O)NC(=O)[C@H](CCC(=O)O)NC(=O)[C@H](CC(=O)O)NC(=O)[C@H](CC(C)C)NC(=O)C(C)(C)NC(=O)[C@@H](NC(=O)[C@H](CO)NC(=O)[C@H](Cc1ccc(O)cc1)NC(=O)[C@H](CC(=O)O)NC(=O)[C@H](CO)NC(=O)[C@@H](NC(=O)[C@](C)(Cc1ccccc1)NC(=O)[C@@H](NC(=O)CNC(=O)[C@H](CCC(=O)O)NC(=O)C(C)(C)NC(=O)[C@@H](N)Cc1ccc(O)cc1)[C@@H](C)O)[C@@H](C)O)[C@@H](C)CC)[C@@H](C)CC)C(=O)N[C@@H](CCC(=O)O)C(=O)NCC(=O)NCC(=O)N1CCC[C@H]1C(=O)N[C@@H](CO)C(=O)N[C@@H](CO)C(=O)NCC(=O)N[C@@H](C)C(=O)N1CCC[C@H]1C(=O)N1CCC[C@H]1C(=O)N1CCC[C@H]1C(=O)N[C@@H](CO)C(N)=O` [Example 117] (H-Y[Aib]EGT[αMeF]TSDYSI[Aib]LDEK([AEEA-AEEA-γGlu-C20 diacid])AQ[Aib]AFIEYLIEGGPSSGAPPPS-NH2) are 192 nM, 6.96 nM, 0.0497 nM, 0.0648 nM and 0.0615 nM.
Consider `CC[C@H](C)[C@H](NC(=O)[C@H](CC(C)C)NC(=O)[C@H](Cc1ccc(O)cc1)NC(=O)[C@H](CCC(=O)O)NC(=O)[C@@H](NC(=O)[C@H](Cc1ccccc1)NC(=O)[C@H](CCC(=O)O)NC(=O)C(C)(C)NC(=O)[C@H](CCC(N)=O)NC(=O)[C@H](C)NC(=O)[C@H](CCCCNC(=O)COCCOCCNC(=O)COCCOCCNC(=O)CC[C@H](NC(=O)CCCCCCCCCCCCCCCCCCC(=O)O)C(=O)O)NC(=O)[C@H](CCC(=O)O)NC(=O)[C@H](CC(=O)O)NC(=O)[C@H](CC(C)C)NC(=O)[C@](C)(CC(C)C)NC(=O)[C@@H](NC(=O)[C@H](CO)NC(=O)[C@H](Cc1ccc(O)cc1)NC(=O)[C@H](CC(=O)O)NC(=O)[C@H](CO)NC(=O)[C@@H](NC(=O)[C@](C)(Cc1ccccc1F)NC(=O)[C@@H](NC(=O)CNC(=O)[C@H](CCC(=O)O)NC(=O)C(C)(C)NC(=O)[C@@H](N)Cc1ccc(O)cc1)[C@@H](C)O)[C@@H](C)O)[C@@H](C)CC)[C@@H](C)CC)C(=O)N[C@@H](CCC(=O)O)C(=O)NCC(=O)NCC(=O)N1CCC[C@H]1C(=O)N[C@@H](CO)C(=O)N[C@@H](CO)C(=O)NCC(=O)N[C@@H](C)C(=O)N1CCC[C@H]1C(=O)N1CCC[C@H]1C(=O)N1CCC[C@H]1C(=O)N[C@@H](CO)C(N)=O` [Example 118] (H-Y[Aib]EGT[αMePhe(2-F)]TSDYSI[αMeL]LDEK([AEEA-AEEA-γGlu-C20 diacid])AQ[Aib]EFIEYLIEGGPSSGAPPPS-NH2), for which the values for the Ki at human Gcg receptor, on human GLP-1R and at human GIP receptor were 53 nM, 6.1 nM and 0.0859 nM, respectively. Besides, the EC50 came out at 0.0538 nM in test [1] and 0.0588 nM in test [2].
